Data as given in article PMC6887720 (Pharmacology Research & Perspectives, 2019).
Where two headings read alike, the source gives them in different places. Each block holds one compound with its values, some of them ahead of it. Residues, ends and D or L forms follow the SMILES beside them. No end group written: not given here.

Tests used:
rat = experiment: Intravenous pharmacokinetic study in rat: observed adverse signs; assay type: in vivo; conditions: intravenous bolus 5 mg/kg
[1] = target: EED (embryonic ectoderm development) (Homo sapiens, UniProt O75530); experiment: Binding to EED
EED (embryonic ectoderm development), sequence (O75530 whole entry, species assumed): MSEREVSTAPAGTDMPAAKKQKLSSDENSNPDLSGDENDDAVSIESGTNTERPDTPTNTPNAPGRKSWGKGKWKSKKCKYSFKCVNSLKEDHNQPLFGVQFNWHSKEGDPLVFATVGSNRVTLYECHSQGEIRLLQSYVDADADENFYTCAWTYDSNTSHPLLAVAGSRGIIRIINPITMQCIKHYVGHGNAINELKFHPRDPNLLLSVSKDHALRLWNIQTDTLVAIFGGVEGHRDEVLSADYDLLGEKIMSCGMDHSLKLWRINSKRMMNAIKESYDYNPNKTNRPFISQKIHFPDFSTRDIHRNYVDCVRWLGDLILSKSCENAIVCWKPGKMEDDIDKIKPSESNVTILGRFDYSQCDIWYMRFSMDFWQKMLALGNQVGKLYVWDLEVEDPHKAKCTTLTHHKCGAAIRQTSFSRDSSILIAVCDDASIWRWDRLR

[2] = tested on: mouse MrgX2 versus human MrgX2; conditions: cited from earlier work
[3] = tested on: U2OS cells (untransfected); experiment: Ca2+ mobilization in U2OS cells lacking MrgX2; assay type: cell-based, human
human MrgX1 (hMrgX1) = human MrgX1 (hMrgX1) (Homo sapiens, UniProt Q96LB2); experiment: Ca2+ mobilization; assay type: cell-based; conditions: hMrgX1-Gα16 cells
human MrgX1 (hMrgX1), sequence (Q96LB2 whole entry): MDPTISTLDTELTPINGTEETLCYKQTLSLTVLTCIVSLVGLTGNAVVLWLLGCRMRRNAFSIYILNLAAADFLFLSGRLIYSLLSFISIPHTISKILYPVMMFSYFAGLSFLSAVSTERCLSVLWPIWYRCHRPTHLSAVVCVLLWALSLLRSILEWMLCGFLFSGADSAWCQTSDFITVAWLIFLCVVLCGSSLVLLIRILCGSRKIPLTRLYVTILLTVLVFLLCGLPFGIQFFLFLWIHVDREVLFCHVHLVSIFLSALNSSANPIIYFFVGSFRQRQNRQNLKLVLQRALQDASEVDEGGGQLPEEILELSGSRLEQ

[4] = cited from earlier work
[5] = target: T1, mouse MrgX2 (mMrgX2, Mrgprb2) (Mus musculus, UniProt Q3KNA1); experiment: Ca2+ mobilization; assay type: cell-based; conditions: no Gα16, up to 1mM
T1 sequence (Q3KNA1 1-338): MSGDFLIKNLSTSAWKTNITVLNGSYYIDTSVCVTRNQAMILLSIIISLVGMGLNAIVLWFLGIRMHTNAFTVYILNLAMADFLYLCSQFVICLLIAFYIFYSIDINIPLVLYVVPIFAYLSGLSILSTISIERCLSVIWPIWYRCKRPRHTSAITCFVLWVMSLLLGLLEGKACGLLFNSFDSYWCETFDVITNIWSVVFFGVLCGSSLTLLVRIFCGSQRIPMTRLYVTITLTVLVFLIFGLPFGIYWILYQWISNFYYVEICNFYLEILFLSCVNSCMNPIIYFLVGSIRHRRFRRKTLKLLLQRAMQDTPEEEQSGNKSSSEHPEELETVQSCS

[6] = tested on: rat MrgX2 (rMrgX2, Mrgprb3); experiment: Ca2+ mobilization; assay type: cell-based; conditions: for calcium response (in words): no Gα16
human MrgX2 (hMrgX2) [7] = target: T2, human MrgX2 (hMrgX2) (Homo sapiens, UniProt Q96LB1); experiment: Ca2+ mobilization; assay type: cell-based
T2 sequence (Q96LB1 1-330): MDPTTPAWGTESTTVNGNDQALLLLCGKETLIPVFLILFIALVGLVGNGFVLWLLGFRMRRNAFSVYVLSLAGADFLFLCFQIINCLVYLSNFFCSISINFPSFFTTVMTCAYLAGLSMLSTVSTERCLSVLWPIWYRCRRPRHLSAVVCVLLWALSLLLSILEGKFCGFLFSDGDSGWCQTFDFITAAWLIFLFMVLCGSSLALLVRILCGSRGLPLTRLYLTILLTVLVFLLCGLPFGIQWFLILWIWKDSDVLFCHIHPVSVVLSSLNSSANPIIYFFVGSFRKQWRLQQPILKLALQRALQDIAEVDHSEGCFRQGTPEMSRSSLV

minipig MrgX2 (mpMrgX2) = target: T3, minipig MrgX2 (mpMrgX2) (Sus scrofa, UniProt A0A4Y5P9C0); experiment: Ca2+ mobilization; assay type: cell-based; conditions: for calcium response (in words): truncated mpMrgX2
T3 sequence (A0A4Y5P9C0 38-367): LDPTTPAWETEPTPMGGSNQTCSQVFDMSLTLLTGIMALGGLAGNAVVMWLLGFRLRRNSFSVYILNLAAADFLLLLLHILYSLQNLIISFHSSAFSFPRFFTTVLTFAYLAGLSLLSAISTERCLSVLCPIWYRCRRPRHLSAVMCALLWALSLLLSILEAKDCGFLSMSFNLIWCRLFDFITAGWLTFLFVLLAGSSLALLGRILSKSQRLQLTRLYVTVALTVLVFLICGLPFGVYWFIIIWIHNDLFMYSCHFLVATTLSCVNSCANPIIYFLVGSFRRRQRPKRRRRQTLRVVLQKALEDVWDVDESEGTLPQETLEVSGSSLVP

[8] = minipig; cited from earlier work
[9] = target: T4, truncated beagle MrgX2 (beMrgX2) (Canis lupus familiaris, UniProt A0A4Y5P885); experiment: Ca2+ mobilization; assay type: cell-based, beagle dog; conditions: for calcium response (in words): truncated beMrgX2
T4 sequence (A0A4Y5P885 88-417): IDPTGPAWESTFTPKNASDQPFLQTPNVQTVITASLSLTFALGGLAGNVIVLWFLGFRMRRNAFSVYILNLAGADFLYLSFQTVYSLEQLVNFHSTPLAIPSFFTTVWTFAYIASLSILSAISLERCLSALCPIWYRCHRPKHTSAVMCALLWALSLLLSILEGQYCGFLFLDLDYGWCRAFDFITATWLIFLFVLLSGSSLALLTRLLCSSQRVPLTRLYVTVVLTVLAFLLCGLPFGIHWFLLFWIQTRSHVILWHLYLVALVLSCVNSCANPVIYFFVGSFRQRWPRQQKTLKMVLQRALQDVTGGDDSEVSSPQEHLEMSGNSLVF

[10] = dog, cited from earlier work
HEK293-MSRII-Gα16 cells = experiment: Ca2+ mobilization, untransfected HEK293-MSRII-Gα16 host cells; assay type: cell-based, human; conditions: data not shown
pig MrgX2 (pMrgX2) = experiment: Ca2+ mobilization; assay type: cell-based; conditions: data not shown
mpMrgX2 = experiment: Ca2+ mobilization, mpMrgX2 transfected into HEK293-MSRII-Gα16 cells; assay type: cell-based, minipig; conditions: data not shown
human MrgX2 (hMrgX2) [11] = target: T2, human MrgX2 (hMrgX2); experiment: Ca2+ mobilization; assay type: cell-based; remark: listed apart in the source
[12] = untransfected U2OS parent cells

Compound: CCCC[C@@H]1NC(=O)[C@@](C)(NC(C)=O)CCCC=CCCC[C@@](C)(C(=O)N[C@@H](CC(N)=O)C(=O)N[C@@H](CCCNC(=N)N)C(=O)N[C@@H](CCC(N)=O)C(=O)N[C@@H](CCCCN)C(=O)N[C@H](C(=O)N[C@@H](CC(C)C)C(=O)N[C@@H](CCC(=O)O)C(=O)N[C@@H](CCCNC(=N)N)C(=O)N[C@H](C(=O)N[C@@]2(C)CCCC=CCCC[C@@](C)(C(=O)N[C@@H](CCC(=O)O)C(=O)N[C@@H](Cc3c[nH]c4ccccc34)C(=O)N[C@@H](CCCCN)C(=O)N[C@@H](CCC(N)=O)C(=O)N[C@@H](CCCNC(=N)N)C(N)=O)NC(=O)[C@H](CC(N)=O)NC(=O)[C@H](CC(C)C)NC(=O)[C@H]([C@@H](C)CC)NC2=O)[C@@H](C)O)[C@@H](C)CC)NC(=O)[C@H](CO)NC(=O)[C@H](Cc2ccccc2)NC1=O (relative stereo) [Peptide 4]
- time to observation of symptoms (rat): ≤ 3 min
- IC50 (binding to EED) [1]: high affinity

Compound: CAS #: 130308-48-4 [Icatibant]
- fold less potent at mouse than human MrgX2 [2]: twofold
- calcium response (in words) [3, 12]: No U2OS calcium response

Compound: VGRPEWWMDYNKRYG [BAM8-22]
- calcium response (in words) (human MrgX1 (hMrgX1)): higher potency at hMrgX1‐Gα16 cells

- calcium response (in words) [5]: did not reach maximal effect at 1mM
- EC50 (human MrgX2 (hMrgX2) [7]): 39.8 µM
- Emax (human MrgX2 (hMrgX2) [7]): 87 ± 8%
- EC50 (minipig MrgX2 (mpMrgX2)): 158 µM
- Emax (minipig MrgX2 (mpMrgX2); U2OS): 84 ± 13%
- calcium response (in words) (minipig MrgX2 (mpMrgX2)): full or near‐full agonist
- EC50 [9]: 25.1 µM
- Emax ([9]; U2OS): 97 ± 12%
- calcium response (in words) [9]: full or near‐full agonist
Compound: CN[C@H](CC(C)C)C(=O)N[C@H]1C(=O)N[C@@H](CC(N)=O)C(=O)N[C@H]2C(=O)N[C@H]3C(=O)N[C@H](C(=O)N[C@H](C(=O)O)c4cc(O)cc(O)c4-c4cc3ccc4O)[C@H](O)c3ccc(c(Cl)c3)Oc3cc2cc(c3O[C@@H]2O[C@H](CO)[C@@H](O)[C@H](O)[C@H]2O[C@H]2C[C@](C)(N)[C@H](O)[C@H](C)O2)Oc2ccc(cc2Cl)[C@H]1O [vancomycin]
- protein binding ([4]; serum): 50%
- Cmax ([4]; vancomycin-treated patients): > 30 µM
- trough (lowest) free serum concentration ([4]; vancomycin-treated patients): ≈ 5 ± 2 µmol/L
- trough serum concentration ([4]; vancomycin-treated patients): 13.6 ± 5.9 mg/L
- calcium response (in words) [6]: did not reach maximal effect at 1mM
- calcium response (in words) [3, 12]: Negligible calcium responses
- Cmax [8]: 34 µg/mL
- free Cmax [8]: ≈ 23 µmol/L
- histamine-like symptoms (in words) [8]: no histamine‐like symptoms were observed
- free Cmax ([10]; assuming 50% protein binding): ≈ 35 µmol/L
- Cmax [10]: ≈ 100 µg/ml
- histamine-like symptoms (in words) [10]: no histamine‐like symptoms were observed

Compound: NCCc1c[nH]cn1 [histamine]
- calcium response (in words) (HEK293-MSRII-Gα16 cells): did not cause calcium release

Compound: CCCC[C@@H]1NC(=O)[C@@](C)(NC(C)=O)CCCC=CCCC[C@@](C)(C(=O)N[C@@H](CC(N)=O)C(=O)N[C@@H](CCCNC(=N)N)C(=O)N[C@@H](CCC(N)=O)C(=O)N[C@@H](CCCCN)C(=O)N[C@H](C(=O)N[C@@H](CC(C)C)C(=O)N[C@@H](CCCNC(=N)N)C(=O)N[C@@H](CCCNC(=N)N)C(=O)N[C@H](C(=O)N[C@@]2(C)CCCC=CCCC[C@@](C)(C(=O)N[C@@H](CCC(=O)O)C(=O)N[C@@H](Cc3c[nH]c4ccccc34)C(=O)N[C@@H](CCCCN)C(=O)N[C@@H](CCC(N)=O)C(=O)N[C@@H](CCCNC(=N)N)C(N)=O)NC(=O)[C@H](CC(N)=O)NC(=O)[C@H](CC(C)C)NC(=O)[C@H]([C@@H](C)CC)NC2=O)[C@@H](C)O)[C@@H](C)CC)NC(=O)[C@H](CO)NC(=O)[C@H](Cc2ccccc2)NC1=O (relative stereo) [GSK3212448]
- calcium response (in words) (pig MrgX2 (pMrgX2)): activated
- fold more potent than reference agonist 48/80 ([6]; rMrgX2 in U2OS cells): 18 fold
- time to observation of symptoms (rat): ≤ 2 min
- calcium response (in words) ([3]; U2OS cells transduced with Gα16 in the absence of hMrgX2): but not Gα16‐U2OS cells
- calcium response (in words) (human MrgX2 (hMrgX2) [7]; hMrgX2-Gα16-U2OS cells): could activate hMrgX2‐Gα16‐U2OS
- calcium response (in words) (minipig MrgX2 (mpMrgX2)): activated
- calcium response (in words) [9]: activated

Compound: C[C@@H](O)[C@@H]1NC(=O)[C@H](CCCCN)NC(=O)[C@H](Cc2c[nH]c3ccccc23)NC(=O)[C@H](Cc2ccccc2)NC(=O)[C@H](Cc2ccccc2)NC(=O)[C@H](CC(N)=O)NC(=O)[C@H](CCCCN)NC(=O)[C@@H](NC(=O)[C@@H]2CCCN2)CSSC[C@@H](C(=O)N[C@@H](CCCCN)C(=O)O)NC(=O)[C@H](CO)NC(=O)[C@H](CO)NC(=O)[C@H](Cc2ccccc2)NC1=O [Cortistatin-14] (HELM PEPTIDE1{P.C.K.N.F.F.W.K.T.F.S.S.C.K}$PEPTIDE1,PEPTIDE1,2:R3-13:R3$$$V2.0)
- calcium response (in words) (mpMrgX2): conferred calcium responses
- calcium response (in words) [6]: conferred a response
- calcium response (in words) (HEK293-MSRII-Gα16 cells): failed to activate untransfected host cells
- calcium response (in words) [3, 12]: No U2OS calcium response
- EC50 (human MrgX2 (hMrgX2) [11]): 316 to 794 nM
